{
  "source": "patent US20220332758A1",
  "about": "“PEPTIDE-BASED COMPOSITIONS AND METHODS FOR TREATING ALZHEIMER'S DISEASE” (Board of Regents, The Universityof Texas System, priority 2019, published 2022)",
  "target": "T1, α face pockets of the 20S core proteasome (Homo sapiens, UniProt P25787+P60900)",
  "T1 construct": "purified from erythrocytes; purchased Boston Biochem, Inc. or Enzo Life Sciences, Inc; host or cells: human erythrocytes",
  "assay": "Competition of TAT peptides with Rpt C-terminal tail peptides for α face pockets (ChT-L activity of 20S)",
  "assay_type": "biochemical",
  "conditions": "for enhanced activation with Rpt tails: 1 μM Rpt peptide; for competition with Rpt tail peptides: 1 μM Rpt peptide added before the TAT peptide",
  "from_the_text": "As mentioned herein, the binding pockets on the α face accept “anchors” from natural protein ligands of the 20S core. […] The 10-residue Rpt-derived C-terminal “tail” peptides (“Rpt peptides”) can be used as competitors with the Rpt subunits or with small allosteric ligands. Importantly, the Rpt peptides interject between the subunits with their C-termini, whereas TAT peptides, according to the modeling, use their N-termini for this purpose. To test the specificity of interactions between TAT compounds and the α face, competition experiments were performed. The 20S core was challenged with selected TAT compounds after treatment with Rpt peptides. Peptides of Rpt2 ([…]; SEQ ID NO: 10), Rpt3 ([…]; SEQ ID NO: 11), Rpt5 ([…]; SEQ ID NO: 12) and Rpt6 ([…]; SEQ ID NO: 13) subunits were selected, docking in α3/α4, α1/α2, α5/α6 and α2/α3 pockets, respectively. Tails of Rpt2, 3, and 5 display the canonical HbYX motif, whereas the LeuTrpLys C-terminus of Rpt6 may be considered “pseudo-HbYX”, with a bulky Trp replacing Tyr. Results of the competition experiments are presented as radar plots in FIG. 15. […] This pocket also emerged as the major binding site for (1) and (8). However, these compounds likely weakly competed with the Rpt2 tail for binding to the α3/α4 pocket as well. The α3/α4 pocket seemed to be favored by (6). […] These complex patterns point at the importance of allosteric effects between the α face ligands, the gate and the catalytic chamber.\nDetermination of Proteasome Activity. Human housekeeping core (20S) proteasome purified from erythrocytes was purchased from Boston Biochem, Inc. (Cambridge, Mass.) or from Enzo Life Sciences, Inc. (Farmingdale, N.Y.). Multiple batches of the proteasomes were used and performed reproducibly. The stock proteasome was diluted to 0.2 mg/mL working solution in “dilution buffer” (50 mM Tris/HCl, pH 8, 20% glycerol). The following model peptide substrates, releasing fluorescent 7-amino-4-methylcoumarin (AMC) reporter group after cleavage, were used: succinyl-LeuLeuValTyr-AMC (SEQ ID NO: 14) (for the ChT-L peptidase; SucLLVY-AMC; Bachem Bioscience Inc., Philadelphia, Pa.), butoxycarbonyl-LeuArgArg-AMC (T-L; Bachem Bioscience Inc., Philadelphia, Pa.) and carbobenzoxy-LeuLeuGlu-AMC (PGPH; Enzo Life Sciences Inc., Farmingdale, N.Y.). The substrates were used at concentration of 50 μM (ChT-L) or 100 μM (T-L, PGPH). Free AMC (Sigma-Aldrich, St. Louis, Mo.) was used as the standard. The C-terminal peptides derived from Rpt2, Rpt3, Rpt5 and Rpt6 were synthesized (standard solid-phase peptide chemistry) and purified to at least 98% purity by GenScript (Piscataway, N.J.). The TAT peptides, Rpt peptides (except Rpt6) and the peptide substrates were dissolved in anhydrous dimethylsulfoxide (DMSO; Sigma-Aldrich, St. Louis, Mo.) and such stock solutions were stored at −20° C. The total concentration of DMSO in final reaction mixtures never exceeded 3% (vol/vol). The Trp (tryptophan)-containing Rpt6 peptide was dissolved in ultrapure water and stored at −20° C., protected from light. The reaction was carried out in 96-well plates, in 100 μL of reaction mixture that consisted of 45 mM Tris/HCl, pH 8, 100 mM KCl, 1 mM EDTA (reaction buffer) and a fluorogenic peptide substrate, to which 200 ng (nearly […]) of proteasome were added. The addition of KCl/EDTA (ethylenediaminetetraacetic acid) to reaction buffer assured latency of the core proteasome. The proteasome was preincubated with a substrate for 10 min at room temperature, then 1 μL of DMSO or a desired concentration of a TAT peptide in 1 μL of DMSO were added. After mixing, the plate was transferred to a Fluoroskan Ascent plate reader (Thermo Fisher Scientific Inc., Waltham, Mass.) for 1 h (37° C.), with fluorescence readouts once per minute. To test the competition with Rpt derived peptides, the Rpt peptide (1 μM) was added before the TAT peptide to the reaction mixture. […]",
  "note": "“Also recorded” adds a separate entry of the source.",
  "data": [
    {"smiles": "N=C(N)NCCCC(NC(=O)CN)C(=O)NC(CCCCN)C(=O)NC(CCCCN)C(=O)NC(CCCNC(=N)N)C(=O)NC(CCCNC(=N)N)C(=O)NC(CCC(N)=O)C(=O)N1Cc2ccccc2C[C@H]1C(=O)N1C(C(=O)NC(CCCNC(N)N)C(=O)N2CCCC2C(=O)NC(CO)C(=O)O)CC2CCCCC21", "note": "(stereo partly shown) [(5), GRKKRRQ-TOD-RPS]", "values": [
      {"measurement": "enhanced activation with Rpt tails", "value": "enhanced activation in the presence of one of Rpt tails, namely Rpt5 or Rpt6"},
      {"measurement": "competition with Rpt tail peptides", "value": "the Rpt3 peptide (α1/α2 pocket) was its sole competitor; also recorded: competed fairly specifically with Rpt3 tail"}
    ]},
    {"smiles": "NCCCCC(N)C(=O)NC(CCCCN)C(=O)NC(CCCCN)C(=O)Nc1cc(NC(=O)C(CCCCN)NC(=O)C(CCCCN)NC(=O)C(N)CCCCN)cc(C(=O)NC(CCCCN)C(=O)NC(CCCCN)C(=O)NC(CCCCN)C(=O)O)c1", "note": "(stereo not shown) [(8)]", "values": [
      {"measurement": "enhanced activation with Rpt tails", "value": "enhanced activation in the presence of one of Rpt tails, namely Rpt5 or Rpt6"},
      {"measurement": "competition with Rpt tail peptides", "value": "weakly negative score for the Rpt2 tail to the presumed major competitor Rpt3"}
    ]}
  ]
}
